Tested on: Plasmopara viticola
Assay: Test against downy mildew of grapevine (preventive action)
Type: in vivo, Plasmopara viticola on grapevine plants (Chardonnay variety)
Settings: alone
Excerpt: In the compositions according to the invention, the compound (I)/compound (II) ratio is advantageously chosen so as to produce a synergistic effect. The term “synergistic effect” especially means the effect defined by S. R. Colby in an article entitled “Calcul des responses synergiques et antagonistes des combinaisons herbicides [Calculation of the synergistic and antagonist responses of herbicidal combinations]”, Weeds, (1967), 15, pages 20–22.
[formula] in which E represents the expected percentage of inhibition of the disease for the combination of the two fungicides at defined doses (for example equal to x and y, respectively), X is the percentage of inhibition observed for the disease by compound (I) at a defined dose (equal to x), Y is the percentage of inhibition observed for the disease by compound (II) at a defined dose (equal to y). When the percentage of inhibition observed for the combination is greater than E, there is a synergistic effect.
Test of a composition against downy mildew of grapevine (Plasmopara viticola; preventive action):
Grapevine plants (Chardonnay variety) are grown on sandy soil in plastic pots, with one plant per pot. The two-month-old plants (6 to 7 leaves developed) are sprayed with compound (I) and compound (II), either alone or as a mixture.
The fungicidal active materials, either alone or as a mixture, are applied at a rate of 500 liters/ha.
The compound (I)/compound (II) ratios studied are 1/10, 1/15 and 1/20.
Three days after the treatment, each plant is inoculated by spraying with an aqueous suspension of Plasmopara viticola spores obtained from contaminated leaves. The spore concentration is about 100 000 units per ml.
After contamination, the plants are incubated for two days at 18° C. under a saturated atmosphere, and then for 5 days at about 20° C. with a relative humidity of 90–100%.
Seven days after the contamination, the symptoms are evaluated in terms of extent of surface area on the underside of the leaves that are infected, relative to the untreated but contaminated plants.
The efficacy of the treatment is calculated using the Abbott formula below: […]
The concentrations of the fungicides alone or as a mixture giving 50%, 70% or 90% efficacy for each component, in the appropriate test, are determined on the basis of the model of the dose/response sigmoid curve and their corresponding confidence intervals. The results are analysed using the Tammes or Colby model.

Row | SMILES | % Efficacy (70 mg/l) | % Efficacy (105 mg/l) | % Efficacy (140 mg/l) | % Efficacy (700 mg/l) | % Efficacy (1050 mg/l) | % Efficacy (1400 mg/l) | % Efficacy (100 mg/l) | % Efficacy (150 mg/l) | % Efficacy (200 mg/l) | % Efficacy (1000 mg/l) | % Efficacy (1500 mg/l) | % Efficacy (2000 mg/l) | % Efficacy (10 mg/l, preventive, 7 days after contamination)
1 | OP(O)O [Compound (IIa), phosphorous acid] | 0% | 0% | 0% | 4% | 50% | 52% | – | – | – | – | – | – | –
2 | CCO[PH](=O)O.[Al] [Compound (IIb), aluminium ethyl hydrogen phosphonate, reference compound] | – | – | – | – | – | – | 0% | 0% | 0% | 46% | 60% | 81% | –
3 | O=C(NCc1ncc(C(F)(F)F)cc1Cl)c1c(Cl)cccc1Cl [Compound (Ia), 2,6-dichloro-N-{[3-chloro-5-(tri-fluoromethyl)-2-pyridinyl]methyl}benzamide] | – | – | – | – | – | – | 100% | – | – | – | – | – | 77%

Reference: patent US7173049B2, “Fungicidal compositions” (Bayer Cropscience S.A., priority 2001, dated 2007)
